Test results taken from patent US7029879B1, “Iodine uptake restoration in thyroid cancer” (University of Kentucky Research Foundation, priority 1999, dated 2006).

Tests used:
[1] = tested on: human thyroid cancer cell lines; conditions: several human thyroid cancer cell lines in vitro; cited from earlier work
NPA'87 cells = assay: Na[125I] uptake (RAIU) after polyamine synthesis inhibition, NPA'87; assay type: cell-based, human; conditions: DFMO at 3 mM
Text: (§1) hNIS transcriptional failure in thyroid carcinoma could be consequent to methylation of DNA in critical regulatory regions and could be reversed by inhibition of DNA-methyltransferase. Restoration of hNIS gene expression and activity from direct DNA-methyltransferase inhibition by 5-azacytidine has been shown. […] Since dcSAM is consumed by synthesis of polyamines (putrescine, spermidine, spermine) and its synthetic enzyme (adenosylmethionine decarboxylase) is stimulated by polyamine depletion, blockade of polyamine synthesis precipitously increases dcSAM levels. This should block DNA-methyltransferase activity and restore lost hNIS expression in dedifferentiated thyroid carcinomas. To assess this, human thyroid cell lines (NPA'87, papillary carcinoma, & KAK-1, follicular adenoma) without basal expression of hNIS or thyroglobulin (TG) mRNAs, were grown as monolayers in phenol red-free RPMI 1640 with 10% fetal bovine serum. […] Parallel cultures were assessed for Na[^125I] uptake (RAIU) in serum-free buffer, subtracting ^125I counts in buffer with choline (100 mM) to correct for non-specific counts and results normalized for cell density in each condition using thiazolyl blue (MTT) assays. […]

hNIS mRNA = hNIS mRNA RT-PCR after polyamine synthesis inhibition; assay type: cell-based, human; conditions: NPA'87 and KAK-1; DFMO 1 or 3 mM, AdoDATO 10 or 30 μM, 6 days; higher doses greater effect
Text: as §1

thyroglobulin (TG) mRNA = assay: Thyroglobulin (TG) mRNA RT-PCR after polyamine synthesis inhibition; assay type: cell-based, human; conditions: NPA'87 and KAK-1; DFMO 1 or 3 mM, AdoDATO 10 or 30 μM, 6 days; higher doses greater effect
Text: as §1

[2] = tested on: thyroid peroxidase (TPO) mRNA; assay: Thyroid peroxidase (TPO) mRNA RT-PCR after polyamine synthesis inhibition; assay type: cell-based, human; conditions: NPA'87 and KAK-1; minimal basal expression; every dosage
Text: as §1

KAK-1 cells = assay: Na[125I] uptake (RAIU) after polyamine synthesis inhibition, KAK-1; assay type: cell-based, human; conditions: 30 μM AdoDATO
Text: as §1

[3] = tested on: dedifferentiated follicular and papillary thyroid cancers; conditions: of 14 patients not concentrating any radioiodine in metastatic tumors at baseline; cited from earlier work
[4] = tested on: UCLA RO 82 W-1 (WRO82) cells; conditions: UCLA RO 82 W-1 (WRO82) follicular carcinoma cell line; cited from earlier work

## gamma interferon: cytokine suggested in the literature to minimally enhance iodide uptake in thyroid cancer cell lines
[1]
  enhancement of iodide uptake: minimal enhancement

## NCCCC(N)(C(=O)O)C(F)F (stereo not drawn) [DFMO, difluoromethylomithine]
NPA'87 cells
  increase in RAIU: > 6 fold
hNIS mRNA
  hNIS mRNA expression: restored
Thyroglobulin (TG) mRNA
  TG mRNA expression: restored
[2]
  TPO expression: enhancing expression at every dosage

## NCCCCC[S+](CCN)CC1OC(n2cnc3c(N)ncnc32)C(O)C1O (stereo not drawn) [AdoDATO, S-adenosyl-1,8-diamino-3-thio-octane]
hNIS mRNA
  hNIS mRNA expression: restored
KAK-1 cells
  increase in RAIU: ~5 fold
Thyroglobulin (TG) mRNA
  TG mRNA expression: restored
[2]
  TPO expression: enhancing expression at every dosage

## CC1=C(/C=C/C(C)=C/C=C/C(C)=C\C(=O)O)C(C)(C)CCC1 [13cis-retinoic acid]
[3]
  additional patients gaining "weak" uptake: three
  patients re-establishing distinct iodide uptake after treatment: one
[4]
  iodide uptake activity: nominal increase
